The term pIC50 denotes the negative decadic logarithm of the IC50, by convention in mol/L.

In patent US9822124B2, “Bicyclic heteroaromatic carboxamide compounds useful as Pim kinase inhibitors” (Incyte Corporation, priority 2014, dated 2017) one finds IC50 data, which are given here for 17 compounds.

What all share (assay type): biochemical
One test has as its target Pim-3 (Homo sapiens (Human), UniProt Q86V86). The experiment in a line: Pim-3 kinase assay (AlphaScreen, Biotin-labeled BAD peptide substrate). The conditions noted are these: 1 mM ATP; read-out: Pim3 IC50. How it is done:
(§1) Pim-1 and Pim-3 kinase assays—20 μL reactions were run in white 384 well polystyrene plates dotted with 0.8 μL compound/DMSO in the assay buffer (50 mM Tris, pH 7.5, 0.01% Tween-20, 5 mM MgCl2, 0.01% BSA, 5 mM DTT), containing 0.05 μM Biotin-labeled BAD peptide substrate (AnaSpec 62269), 1 mM ATP, and […] (Pim-1, Invitrogen PV3503) or […] (Pim-3, Millipore 14-738) enzyme for 1 h at 25° C. Reactions were stopped by addition of 10 μL STOP Buffer (150 mM Tris, pH=7.5, 150 mM NaCl, 75 mM EDTA, 0.01% Tween-20, 0.3% BSA) supplemented with Phospho-Bad (Ser112) Antibody (Cell Signaling 9291) diluted 666-fold, and Streptavidin donor beads (PerkinElmer 6760002) along with Protein-A acceptor beads (PerkinElmer 6760137) at 15 μg/mL each. Supplementation of the STOP buffer with beads and stopping the reactions were done under reduced light. Prior to the stopping reactions STOP buffer with beads was preincubated for 1 h in the dark at room temperature. After stopping the reactions, plates were incubated for 1 h in the dark at room temperature before reading on a PHERAstar FS plate reader (BMG Labtech) under reduced light.
(In Alpha technology, singlet oxygen from a donor bead excites a nearby acceptor bead.)

A further test deals with Pim-1 (Homo sapiens (Human), UniProt P11309). The experiment in a line: Pim-1 kinase assay (AlphaScreen, Biotin-labeled BAD peptide substrate). The note with it: 1 mM ATP; read-out: Pim1 IC50. How it is done:
as §1

In a further test the target is Pim-2 (Homo sapiens (Human), UniProt Q9P1W9). The experiment in a line: Pim-2 kinase assay (TR-FRET, Fluorescein-labeled CREBtide peptide substrate). The conditions noted are these: 1 mM ATP; read-out: Pim2 IC50. On the procedure: Pim-2 kinase assay—20 μL reactions were run in white 384 well polystyrene plates dotted with 0.8 μL compound/DMSO in the assay buffer (50 mM Tris, pH 7.5, 0.01% Tween-20, 5 mM MgCl2, 0.01% BSA, 5 mM DTT), containing 0.05 μM Fluorescein-labeled CREBtide peptide substrate (Invitrogen PV3508), 1 mM ATP, and 1 nM enzyme (Invitrogen PV3649) for 2 h at 25° C. Reactions were stopped by addition of 10 μL TR-FRET Dilution Buffer (Invitrogen PV3574) with 30 mM EDTA and 1.5 nM LanthaScreen Tb-CREB pSer133 antibody (Invitrogen PV3566). After 30 min. incubation at room temperature, plates were read on a PHERAstar FS plate reader (BMG Labtech).
Pim-2, sequence (Q9P1W9 whole entry): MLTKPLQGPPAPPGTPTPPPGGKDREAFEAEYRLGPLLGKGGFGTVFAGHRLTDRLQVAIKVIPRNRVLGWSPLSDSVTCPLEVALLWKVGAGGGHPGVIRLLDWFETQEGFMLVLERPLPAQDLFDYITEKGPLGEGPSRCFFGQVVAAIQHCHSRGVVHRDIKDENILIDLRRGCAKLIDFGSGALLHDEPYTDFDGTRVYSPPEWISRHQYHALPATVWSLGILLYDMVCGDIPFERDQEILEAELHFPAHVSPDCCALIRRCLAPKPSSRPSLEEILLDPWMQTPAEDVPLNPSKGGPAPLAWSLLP
For orientation: Time-resolved FRET reads energy transfer from a long-lived donor to a nearby acceptor.

pIC50: −log10 of the molar value.

Pim-1, sequence (P11309 whole entry): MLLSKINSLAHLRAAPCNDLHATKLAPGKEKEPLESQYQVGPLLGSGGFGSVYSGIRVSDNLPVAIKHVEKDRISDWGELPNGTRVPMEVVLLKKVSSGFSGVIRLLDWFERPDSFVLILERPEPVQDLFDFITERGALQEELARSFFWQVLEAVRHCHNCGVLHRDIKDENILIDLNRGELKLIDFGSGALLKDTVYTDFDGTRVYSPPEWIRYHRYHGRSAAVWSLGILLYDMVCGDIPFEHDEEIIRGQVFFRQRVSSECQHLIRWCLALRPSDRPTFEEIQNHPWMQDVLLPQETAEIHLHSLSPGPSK

Consider `C[C@@H]1C[C@H](N)CN(c2ccncc2NC(=O)c2ccc3occ(-c4c(F)cccc4F)c3n2)C1` [Example 19, N-(4-((3S,5R)-3-Amino-5-methylpiperidin-1-yl)pyridin-3-yl)-3-(2,6-difluorophenyl)furo[3,2-b]pyridine-5-carboxamide], for which the results for the pIC50 on Pim-3, on Pim-1 and at Pim-2 were not below 8.00, not below 8.00 and not below 7.00, respectively.
Turning to `C[C@H]1CN(c2ccncc2NC(=O)c2ccc3sc(-c4c(F)cccc4F)cc3n2)C[C@@H](N)[C@@H]1O` [Example 40, N-(4-((3R,4R,5S)-3-Amino-4-hydroxy-5-methylpiperidin-1-yl)pyridin-3-yl)-2-(2,6-difluorophenyl)thieno[3,2-b]pyridine-5-carboxamide], the figures for the pIC50 on Pim-3, at Pim-1 and on Pim-2 were not below 8.00, not below 8.00 and 6.00 to 7.00, respectively.
Take `COc1ccc(F)c(-c2csc3ccc(C(=O)Nc4cnccc4N4C[C@H](C)C[C@H](N)C4)nc23)c1F` [Example 64, N-(4-((3S,5R)-3-Amino-5-methylpiperidin-1-yl)pyridin-3-yl)-3-(2,6-difluoro-3-methoxyphenyl)thieno[3,2-b]pyridine-5-carboxamide]: the pIC50 on Pim-3 was 7.30 to 8.00; at Pim-1, not below 8.00; at Pim-2 it was 6.00 to 7.00.
For the compound `C[C@H]1CN(c2ccncc2NC(=O)c2ccc3cc([C@H]4C[C@@H]4c4ccccc4)oc3n2)C[C@@H](N)[C@@H]1O` [Example 72, N-(4-((3R,4R,5S)-3-Amino-4-hydroxy-5-methylpiperidin-1-yl)pyridin-3-yl)-2-((1S,2S)-2-phenylcyclopropyl)furo[2,3-b]pyridine-6-carboxamide], the negative logarithm of the IC50 (pIC50) at Pim-3 was not below 8.00; on Pim-1, not below 8.00; at Pim-2, 5.00 to 6.00.
Turning to `C[C@H]1CN(c2ccncc2NC(=O)c2ccc3sc(C4CC4)cc3n2)C[C@@H](N)[C@@H]1O` [Example 47, N-(4-((3R,4R,5S)-3-Amino-4-hydroxy-5-methylpiperidin-1-yl)pyridin-3-yl)-2-cyclopropylthieno[3,2-b]pyridine-5-carboxamide], the results for the negative logarithm of the IC50 (pIC50) on Pim-3, at Pim-1 and on Pim-2 were not below 8.00, not below 8.00 and not below 7.00, respectively.
As to `C[C@@H]1C[C@H](N)CN(c2ccncc2NC(=O)c2ccc3occ(-c4ccccc4F)c3n2)C1` [Example 21, N-(4-((3S,5R)-3-Amino-5-methylpiperidin-1-yl)pyridin-3-yl)-3-(2-fluorophenyl)furo[3,2-b]pyridine-5-carboxamide], the negative logarithm of the IC50 (pIC50) on Pim-3 is not below 8.00; on Pim-1 it was not below 8.00; at Pim-2 it was not below 7.00.
In the case of `C[C@@H]1C[C@H](N)CN(c2ccncc2NC(=O)c2ccc3occ(-c4cnn(C)c4)c3n2)C1` [Example 29, N-(4-((3S,5R)-3-Amino-5-methylpiperidin-1-yl)pyridin-3-yl)-3-(1-methyl-1H-pyrazol-4-yl)furo[3,2-b]pyridine-5-carboxamide], the negative logarithm of the IC50 (pIC50) at Pim-3 was 7.30 to 8.00; on Pim-1, not below 8.00; on Pim-2, 5.00 to 6.00.
On to `C[C@H]1CN(c2ccncc2NC(=O)c2ccc3sc(-c4ccc(N5CCOCC5)nc4)cc3n2)C[C@@H](N)[C@@H]1O` [Example 44, N-(4-((3R,4R,5S)-3-Amino-4-hydroxy-5-methylpiperidin-1-yl)pyridin-3-yl)-2-(6-morpholinopyridin-3-yl)thieno[3,2-b]pyridine-5-carb oxamide], for which the pIC50 at Pim-3 is not below 8.00; at Pim-1, not below 8.00; on Pim-2, 6.00 to 7.00.
Take `C[C@@H]1C[C@H]1c1cc2ccc(C(=O)Nc3cnccc3N3C[C@@H](N)[C@H](O)[C@@H](C)C3)nc2o1` (racemic) [Example 74, N-{4-[(3R,4R,5S)-3-Amino-4-hydroxy-5-methylpiperidin-1-yl]pyridin-3-yl}-2-(trans-2-methylcyclopropyl)furo[2,3-b]pyridine-6-carboxamide]: the negative logarithm of the IC50 (pIC50) at Pim-3 is not below 8.00; at Pim-1, not below 8.00; at Pim-2, not below 7.00.
Turning to `COc1ccc(F)c(-c2coc3ccc(C(=O)Nc4cnccc4N4C[C@@H](N)[C@H](O)[C@@H](C)C4)nc23)c1F` [Example 13, N-(4-((3R,4R,5S)-3-Amino-4-hydroxy-5-methylpiperidin-1-yl)pyridin-3-yl)-3-(2,6-difluoro-3-methoxyphenyl)furo[3,2-b]pyridine-5-carboxamide], the negative logarithm of the IC50 (pIC50) at Pim-3 was not below 8.00; on Pim-1, not below 8.00; on Pim-2 it was 6.00 to 7.00.
For the compound `C[C@@H]1C[C@H](N)CN(c2ccncc2NC(=O)c2ccc3ccn(C4CCC4)c3n2)C1` [Example 78, N-{4-[(3S,5R)-3-Amino-5-methylpiperidin-1-yl]pyridin-3-yl}-1-cyclobutyl-1H-pyrrolo[2,3-b]pyridine-6-carboxamide], the negative logarithm of the IC50 (pIC50) on Pim-3 is not below 8.00; at Pim-1 it was not below 8.00; at Pim-2 it was 6.00 to 7.00.
Regarding `C[C@H]1CN(c2ccncc2NC(=O)c2ccc3occ(-c4c(F)cccc4F)c3n2)C[C@@H](N)[C@@H]1O` [Example 11, N-(4-((3R,4R,5S)-3-Amino-4-hydroxy-5-methylpiperidin-1-yl)pyridin-3-yl)-3-(2,6-difluorophenyl)furo[3,2-b]pyridine-5-carboxamide], the negative logarithm of the IC50 (pIC50) on Pim-3 was not below 8.00; on Pim-1, not below 8.00; on Pim-2, not below 7.00.
Turning to `C[C@@H]1C[C@H](N)CN(c2ccncc2NC(=O)c2ccc3scc(-c4cnn(C)c4)c3n2)C1` [Example 63, N-(4-((3S,5R)-3-Amino-5-methylpiperidin-1-yl)pyridin-3-yl)-3-(1-methyl-1H-pyrazol-4-yl)thieno[3,2-b]pyridine-5-carboxamide], the pIC50 was less than 7.40 at Pim-3, not below 8.00 on Pim-1 and less than 5.70 at Pim-2.
With `C[C@@H]1C[C@H](N)CN(c2ccncc2NC(=O)c2ccc3sc(-c4c(F)cccc4F)cc3n2)C1` [Example 52, N-(4-((3S,5R)-3-Amino-5-methylpiperidin-1-yl)pyridin-3-yl)-2-(2,6-difluorophenyl)thieno[3,2-b]pyridine-5-carboxamide], the negative-log IC50 (pIC50) at Pim-3 was not below 8.00; on Pim-1, not below 8.00; at Pim-2, 6.00 to 7.00.
Turning to `CC(C)c1csc2ccc(C(=O)Nc3cnccc3N3C[C@H](C)C[C@H](N)C3)nc12` [Example 62, N-(4-((3S,5R)-3-Amino-5-methylpiperidin-1-yl)pyridin-3-yl)-3-isopropylthieno[3,2-b]pyridine-5-carboxamide], the values for the negative-log IC50 (pIC50) at Pim-3, on Pim-1 and on Pim-2 were not below 8.00, not below 8.00 and not below 7.00, respectively.
On to `CC(C)c1coc2ccc(C(=O)Nc3cnccc3[C@@H]3C[C@H](C)C[C@H](N)C3)nc12` [Example 68, N-{4-[(1R,3S,5S)-3-Amino-5-methylcyclohexyl]pyridin-3-yl}-3-isopropylfuro[3,2-b]pyridine-5-carboxamide], for which the negative logarithm of the IC50 (pIC50) was not below 8.00 at Pim-3, not below 8.00 at Pim-1 and not below 7.00 at Pim-2.
`CCCc1cc2nc(C(=O)Nc3cnccc3N3C[C@H](C)C[C@H](N)C3)ccc2s1` [Example 50, N-(4-((3S,5R)-3-Amino-5-methylpiperidin-1-yl)pyridin-3-yl)-2-propylthieno[3,2-b]pyridine-5-carboxamide]: the pIC50 at Pim-3 is not below 8.00; at Pim-1, not below 8.00; at Pim-2, not below 7.00.
